Holding throughout (experiment): biochemical
Common to all, as to format: binding

The target in assay [1] is T1, panel of 442 kinases (Homo sapiens, UniProt P10721).
T1 construct: purchased Ambit Biosciences (scanMAXX KINOMEscan)
Particulars: kinase KIT; for remaining activity at 1 µM: read-out: % of control at 1 µM.

Assay [2] addresses T2, panel of 442 kinases (Homo sapiens, UniProt P10721, D816V).
T2 construct: purchased Ambit Biosciences (scanMAXX KINOMEscan)
The settings on record: kinase KIT(D816V), second of two lines so named (r207); for remaining activity at 1 µM: read-out: % of control at 1 µM.

For assay [3], the target named is T3, panel of 442 kinases (Homo sapiens, UniProt P22455).
T3 construct: purchased Ambit Biosciences (scanMAXX KINOMEscan)
T3 sequence (P22455 22-802): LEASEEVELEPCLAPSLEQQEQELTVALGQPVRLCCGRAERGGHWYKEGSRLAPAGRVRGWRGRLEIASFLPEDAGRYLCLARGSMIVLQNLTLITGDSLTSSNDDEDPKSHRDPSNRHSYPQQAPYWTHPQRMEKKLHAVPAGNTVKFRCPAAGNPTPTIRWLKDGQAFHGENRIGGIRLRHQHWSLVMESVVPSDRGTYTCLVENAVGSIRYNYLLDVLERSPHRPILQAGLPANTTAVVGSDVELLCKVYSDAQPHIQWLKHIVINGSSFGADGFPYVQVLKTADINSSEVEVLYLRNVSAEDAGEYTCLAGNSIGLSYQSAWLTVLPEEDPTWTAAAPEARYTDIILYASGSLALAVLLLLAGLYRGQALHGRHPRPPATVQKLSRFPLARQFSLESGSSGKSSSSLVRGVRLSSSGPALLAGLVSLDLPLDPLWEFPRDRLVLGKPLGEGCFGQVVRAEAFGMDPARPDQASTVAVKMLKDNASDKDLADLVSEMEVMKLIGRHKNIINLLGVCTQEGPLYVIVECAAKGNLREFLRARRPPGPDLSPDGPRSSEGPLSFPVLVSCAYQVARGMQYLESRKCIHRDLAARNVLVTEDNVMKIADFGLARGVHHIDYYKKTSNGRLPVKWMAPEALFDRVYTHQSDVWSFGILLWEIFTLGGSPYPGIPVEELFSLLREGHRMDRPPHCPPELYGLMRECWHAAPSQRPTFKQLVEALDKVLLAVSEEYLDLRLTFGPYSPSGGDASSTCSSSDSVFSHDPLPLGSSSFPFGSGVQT
Particulars: FGFR4; for remaining activity at 1 µM: read-out: % of control at 1 µM.

Assay [4] has as its target T4, panel of 442 kinases (Homo sapiens, UniProt P78362).
T4 construct: purchased Ambit Biosciences (scanMAXX KINOMEscan)
The settings on record: kinase SRPK2; for remaining activity at 1 µM: read-out: SRPK2 (% of control at 1 µM).

Assay [5] addresses T5, panel of 442 kinases (Homo sapiens, UniProt Q16513).
T5 construct: purchased Ambit Biosciences (scanMAXX KINOMEscan)
The settings on record: kinase PKN2; for remaining activity at 1 µM: read-out: PKN2 (% of control at 1 µM).

Assay [6] addresses T6, panel of 442 kinases (Homo sapiens, UniProt Q5S007).
T6 construct: purchased Ambit Biosciences (scanMAXX KINOMEscan)
The settings on record: kinase LRRK2; for remaining activity at 1 µM: read-out: % of control at 1 µM.

The target in assay [7] is T7, panel of 442 kinases (Homo sapiens, UniProt Q8IU85).
T7 construct: purchased Ambit Biosciences (scanMAXX KINOMEscan)
The settings on record: CAMK1D; for remaining activity at 1 µM: read-out: % of control at 1 µM.

Assay [8] deals with T8, panel of 442 kinases (Homo sapiens, UniProt Q8TD08).
T8 construct: purchased Ambit Biosciences (scanMAXX KINOMEscan)
T8 sequence (Q8TD08 1-544): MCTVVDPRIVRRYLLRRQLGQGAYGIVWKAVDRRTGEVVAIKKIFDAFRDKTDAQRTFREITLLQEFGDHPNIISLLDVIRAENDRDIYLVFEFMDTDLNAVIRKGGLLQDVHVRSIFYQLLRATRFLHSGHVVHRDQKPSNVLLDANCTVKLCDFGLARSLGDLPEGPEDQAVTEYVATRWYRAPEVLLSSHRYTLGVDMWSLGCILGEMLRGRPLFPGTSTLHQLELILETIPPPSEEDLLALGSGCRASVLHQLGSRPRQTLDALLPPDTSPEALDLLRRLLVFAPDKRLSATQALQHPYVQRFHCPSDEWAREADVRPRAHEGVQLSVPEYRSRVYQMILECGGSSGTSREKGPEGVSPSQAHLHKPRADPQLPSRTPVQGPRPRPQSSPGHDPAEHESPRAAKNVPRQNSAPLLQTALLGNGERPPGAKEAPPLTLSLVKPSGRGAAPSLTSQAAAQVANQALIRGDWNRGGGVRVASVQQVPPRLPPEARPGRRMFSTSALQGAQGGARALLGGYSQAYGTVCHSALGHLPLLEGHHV
Particulars: ERK8; for remaining activity at 1 µM: read-out: % of control at 1 µM.

In assay [9] the target is T9, panel of 442 kinases (Homo sapiens, UniProt Q96D53).
T9 construct: purchased Ambit Biosciences (scanMAXX KINOMEscan)
T9 sequence (Q96D53 1-544): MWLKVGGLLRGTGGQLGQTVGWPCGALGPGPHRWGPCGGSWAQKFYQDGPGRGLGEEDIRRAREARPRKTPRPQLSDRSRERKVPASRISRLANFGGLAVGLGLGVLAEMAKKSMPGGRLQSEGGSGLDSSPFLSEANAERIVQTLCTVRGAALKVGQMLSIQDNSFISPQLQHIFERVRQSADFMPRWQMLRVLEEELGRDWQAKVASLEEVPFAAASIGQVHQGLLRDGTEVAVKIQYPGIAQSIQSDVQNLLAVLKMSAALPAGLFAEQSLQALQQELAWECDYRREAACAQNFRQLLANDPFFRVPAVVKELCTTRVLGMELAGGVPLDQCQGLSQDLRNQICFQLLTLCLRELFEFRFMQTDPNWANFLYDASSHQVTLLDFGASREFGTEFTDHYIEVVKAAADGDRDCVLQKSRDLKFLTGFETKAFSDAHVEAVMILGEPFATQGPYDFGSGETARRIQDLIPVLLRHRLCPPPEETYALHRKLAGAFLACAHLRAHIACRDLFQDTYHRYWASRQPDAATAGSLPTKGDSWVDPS
Particulars: ADCK4; for remaining activity at 1 µM: read-out: % of control at 1 µM.

For assay [10], the target named is T10, panel of 442 kinases (Homo sapiens, UniProt Q9H422).
T10 construct: purchased Ambit Biosciences (scanMAXX KINOMEscan)
T10 sequence (Q9H422 whole entry): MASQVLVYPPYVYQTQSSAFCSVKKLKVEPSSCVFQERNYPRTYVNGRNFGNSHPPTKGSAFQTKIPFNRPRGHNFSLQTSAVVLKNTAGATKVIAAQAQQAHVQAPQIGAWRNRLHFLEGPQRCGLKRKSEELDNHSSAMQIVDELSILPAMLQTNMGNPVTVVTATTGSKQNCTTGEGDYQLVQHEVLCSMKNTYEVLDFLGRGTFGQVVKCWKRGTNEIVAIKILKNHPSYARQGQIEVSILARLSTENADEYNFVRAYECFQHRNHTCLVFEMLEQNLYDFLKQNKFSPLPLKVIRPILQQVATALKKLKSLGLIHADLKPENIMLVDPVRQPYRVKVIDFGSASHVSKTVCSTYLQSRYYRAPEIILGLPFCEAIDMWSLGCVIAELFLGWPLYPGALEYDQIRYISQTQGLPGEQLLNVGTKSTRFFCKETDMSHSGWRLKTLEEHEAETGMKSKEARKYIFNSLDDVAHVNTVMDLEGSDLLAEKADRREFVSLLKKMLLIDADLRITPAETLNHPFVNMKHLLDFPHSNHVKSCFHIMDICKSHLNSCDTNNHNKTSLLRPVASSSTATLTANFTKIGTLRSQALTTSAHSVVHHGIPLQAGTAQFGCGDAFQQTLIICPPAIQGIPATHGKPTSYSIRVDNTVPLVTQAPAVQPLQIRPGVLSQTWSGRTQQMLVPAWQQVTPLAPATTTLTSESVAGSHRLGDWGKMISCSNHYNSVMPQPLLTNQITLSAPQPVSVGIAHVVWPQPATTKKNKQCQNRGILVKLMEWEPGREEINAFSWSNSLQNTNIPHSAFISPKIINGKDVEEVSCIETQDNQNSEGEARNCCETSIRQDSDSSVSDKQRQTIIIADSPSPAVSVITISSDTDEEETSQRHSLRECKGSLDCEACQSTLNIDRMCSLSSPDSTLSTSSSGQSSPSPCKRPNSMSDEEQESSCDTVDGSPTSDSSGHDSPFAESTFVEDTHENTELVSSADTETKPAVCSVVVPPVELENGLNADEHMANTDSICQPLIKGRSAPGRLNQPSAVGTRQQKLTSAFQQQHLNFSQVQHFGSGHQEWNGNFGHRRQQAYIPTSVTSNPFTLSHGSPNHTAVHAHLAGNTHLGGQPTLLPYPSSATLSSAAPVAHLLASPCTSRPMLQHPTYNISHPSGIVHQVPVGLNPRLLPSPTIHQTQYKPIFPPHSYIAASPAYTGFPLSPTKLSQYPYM
Particulars: kinase HIPK3; for remaining activity at 1 µM: read-out: % of control at 1 µM.

The target of assay [11] is T11, panel of 442 kinases (Homo sapiens, UniProt Q9HC98).
T11 construct: purchased Ambit Biosciences (scanMAXX KINOMEscan)
T11 sequence (Q9HC98 whole entry): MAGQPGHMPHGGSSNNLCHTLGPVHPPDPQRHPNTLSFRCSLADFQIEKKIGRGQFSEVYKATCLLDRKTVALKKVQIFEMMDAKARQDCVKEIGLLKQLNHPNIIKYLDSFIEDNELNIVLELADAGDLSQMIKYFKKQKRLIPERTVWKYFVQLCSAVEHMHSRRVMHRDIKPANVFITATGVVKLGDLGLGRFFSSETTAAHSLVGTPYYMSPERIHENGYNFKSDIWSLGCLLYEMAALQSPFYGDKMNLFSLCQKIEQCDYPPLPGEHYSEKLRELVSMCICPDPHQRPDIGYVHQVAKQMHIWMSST
The settings on record: kinase NEK6; for remaining activity at 1 µM: read-out: % of control at 1 µM.

Assay [12] concerns the target T12, panel of 442 kinases (Homo sapiens, UniProt Q9NSY1).
T12 construct: purchased Ambit Biosciences (scanMAXX KINOMEscan)
The settings on record: BIKE; for remaining activity at 1 µM: read-out: % of control at 1 µM.

For assay [13], the target named is T13, panel of 442 kinases (Homo sapiens, UniProt Q9UPE1).
T13 construct: purchased Ambit Biosciences (scanMAXX KINOMEscan)
The settings on record: kinase SRPK3; for remaining activity at 1 µM: read-out: SRPK3 (% of control at 1 µM).

Assay [14] addresses T14, panel of 442 kinases (Homo sapiens, UniProt Q9Y6R4).
T14 construct: purchased Ambit Biosciences (scanMAXX KINOMEscan)
Particulars: kinase MAP3K4; for remaining activity at 1 µM: read-out: % of control at 1 µM.

[15] abbreviates: 10 µM, read-out: % of control at 10 µM.

T5 sequence (Q16513 whole entry): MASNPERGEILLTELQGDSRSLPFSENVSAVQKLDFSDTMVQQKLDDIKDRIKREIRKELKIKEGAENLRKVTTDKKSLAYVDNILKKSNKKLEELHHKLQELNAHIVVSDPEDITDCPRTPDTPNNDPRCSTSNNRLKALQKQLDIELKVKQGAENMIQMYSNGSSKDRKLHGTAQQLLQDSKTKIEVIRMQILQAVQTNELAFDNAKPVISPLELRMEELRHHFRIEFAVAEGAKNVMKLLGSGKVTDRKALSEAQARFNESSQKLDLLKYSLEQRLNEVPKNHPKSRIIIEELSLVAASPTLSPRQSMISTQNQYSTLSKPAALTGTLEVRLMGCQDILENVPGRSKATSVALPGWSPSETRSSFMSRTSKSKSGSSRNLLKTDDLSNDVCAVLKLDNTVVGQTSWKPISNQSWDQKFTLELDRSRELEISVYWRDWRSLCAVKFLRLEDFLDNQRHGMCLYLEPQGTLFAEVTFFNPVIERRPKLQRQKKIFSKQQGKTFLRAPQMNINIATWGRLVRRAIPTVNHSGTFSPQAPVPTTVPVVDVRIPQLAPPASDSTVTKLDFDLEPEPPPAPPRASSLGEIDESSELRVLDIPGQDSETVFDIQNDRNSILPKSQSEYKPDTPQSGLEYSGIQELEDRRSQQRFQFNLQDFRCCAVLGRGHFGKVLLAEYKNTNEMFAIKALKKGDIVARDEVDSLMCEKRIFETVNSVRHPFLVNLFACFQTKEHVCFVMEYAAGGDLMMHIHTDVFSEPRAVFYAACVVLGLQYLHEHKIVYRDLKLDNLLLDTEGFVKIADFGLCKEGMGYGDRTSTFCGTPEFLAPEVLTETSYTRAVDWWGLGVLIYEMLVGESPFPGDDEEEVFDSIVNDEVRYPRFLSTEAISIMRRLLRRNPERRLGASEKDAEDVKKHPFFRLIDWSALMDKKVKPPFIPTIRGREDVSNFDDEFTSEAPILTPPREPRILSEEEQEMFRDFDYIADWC
T14 sequence (Q9Y6R4 whole entry): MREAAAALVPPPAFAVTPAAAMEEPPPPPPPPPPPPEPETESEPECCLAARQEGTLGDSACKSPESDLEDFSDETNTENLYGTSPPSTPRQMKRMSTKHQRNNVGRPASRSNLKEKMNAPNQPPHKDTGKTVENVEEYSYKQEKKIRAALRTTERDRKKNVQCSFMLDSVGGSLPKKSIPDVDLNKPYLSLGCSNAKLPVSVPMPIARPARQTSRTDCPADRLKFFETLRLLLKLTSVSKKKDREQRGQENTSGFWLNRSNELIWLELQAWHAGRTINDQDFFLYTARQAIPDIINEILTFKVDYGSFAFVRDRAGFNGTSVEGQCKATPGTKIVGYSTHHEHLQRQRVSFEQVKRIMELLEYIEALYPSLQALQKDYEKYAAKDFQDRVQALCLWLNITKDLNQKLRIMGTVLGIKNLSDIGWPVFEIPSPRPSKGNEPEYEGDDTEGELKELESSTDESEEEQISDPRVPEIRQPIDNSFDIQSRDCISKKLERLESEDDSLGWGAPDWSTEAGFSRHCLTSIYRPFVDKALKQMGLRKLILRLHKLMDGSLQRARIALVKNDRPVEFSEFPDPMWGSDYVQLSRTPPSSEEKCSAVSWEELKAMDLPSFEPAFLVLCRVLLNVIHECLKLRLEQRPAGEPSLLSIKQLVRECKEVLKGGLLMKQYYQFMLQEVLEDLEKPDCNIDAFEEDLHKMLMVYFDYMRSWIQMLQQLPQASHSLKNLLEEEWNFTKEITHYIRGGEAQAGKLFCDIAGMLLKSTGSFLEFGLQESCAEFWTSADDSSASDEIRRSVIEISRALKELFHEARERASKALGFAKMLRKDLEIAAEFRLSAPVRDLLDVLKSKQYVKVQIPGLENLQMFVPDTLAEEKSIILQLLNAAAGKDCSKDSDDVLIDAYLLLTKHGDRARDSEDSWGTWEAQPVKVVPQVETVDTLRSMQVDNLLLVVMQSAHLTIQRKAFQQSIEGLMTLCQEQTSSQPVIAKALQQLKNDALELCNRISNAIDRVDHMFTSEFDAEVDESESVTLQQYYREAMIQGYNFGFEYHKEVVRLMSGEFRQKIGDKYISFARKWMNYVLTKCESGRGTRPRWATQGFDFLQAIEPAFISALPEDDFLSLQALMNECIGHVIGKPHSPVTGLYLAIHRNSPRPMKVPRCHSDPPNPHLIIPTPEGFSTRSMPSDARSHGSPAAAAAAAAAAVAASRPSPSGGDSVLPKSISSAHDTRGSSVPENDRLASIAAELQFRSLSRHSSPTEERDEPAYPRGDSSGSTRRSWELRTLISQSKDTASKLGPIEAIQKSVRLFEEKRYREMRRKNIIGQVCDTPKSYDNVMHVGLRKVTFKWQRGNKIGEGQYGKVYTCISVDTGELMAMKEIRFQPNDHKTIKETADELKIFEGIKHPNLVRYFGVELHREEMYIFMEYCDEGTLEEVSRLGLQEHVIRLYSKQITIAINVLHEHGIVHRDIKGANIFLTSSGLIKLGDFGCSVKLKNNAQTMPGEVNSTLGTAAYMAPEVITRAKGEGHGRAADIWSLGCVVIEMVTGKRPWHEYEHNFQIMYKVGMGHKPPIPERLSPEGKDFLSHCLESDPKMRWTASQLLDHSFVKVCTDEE

Take `Nc1cc(C(F)(F)F)c(-c2cc(N3CCOCC3)nc(N3CCOCC3)n2)cn1` [Buparlisib]: the remaining activity at 1 µM at panel of 442 kinases [1] came to 89%; at panel of 442 kinases [2], 100%; at panel of 442 kinases [3], 100%; at panel of 442 kinases [4] it was 78%; on panel of 442 kinases [5], 83%; on panel of 442 kinases [6], 80%. Also, the remaining activity at 1 µM was determined as 100% at panel of 442 kinases [7]; 100% on panel of 442 kinases [8]; 100% on panel of 442 kinases [9]; 92% on panel of 442 kinases [10]; 84% on panel of 442 kinases [11]; 98% on panel of 442 kinases [12]. Also, the remaining activity at 1 µM turned out to be 100% at panel of 442 kinases [13] and 92% at panel of 442 kinases [14]. For the same compound, the remaining activity at 10 µM is 66% at panel of 442 kinases [1] (setting [15]); 100% at panel of 442 kinases [2] (setting [15]); 100% on panel of 442 kinases [3] (setting [15]); 100% at panel of 442 kinases [4] (10 µM, read-out: SRPK2 (% of control at 10 µM)); 100% on panel of 442 kinases [5] (10 µM, read-out: PKN2 (% of control at 10 µM)); 100% on panel of 442 kinases [6] (setting [15]). The remaining activity at 10 µM on panel of 442 kinases [7] (setting [15]) is 100%; on panel of 442 kinases [8] (setting [15]) it was 100%; on panel of 442 kinases [9] (setting [15]), 100%; at panel of 442 kinases [10] (setting [15]), 98%; on panel of 442 kinases [11] (setting [15]), 100%; on panel of 442 kinases [12] (setting [15]) it was 100%. Also, the remaining activity at 10 µM at panel of 442 kinases [13] (10 µM, read-out: SRPK3 (% of control at 10 µM)) came to 100%; on panel of 442 kinases [14] (setting [15]) it was 100%.
`Cn1c(=O)n(-c2ccc(C(C)(C)C#N)cc2)c2c3cc(-c4cnc5ccccc5c4)ccc3ncc21` [Dactolisib, 2-methyl-2-[4-(3-methyl-2-oxo-8-quinolin-3-yl-2,3-dihydroimidazo[4,5-c]quinolin-1-yl)-phenyl] propionitrile]: the remaining activity at 1 µM stood at 63% at panel of 442 kinases [1]; 59% at panel of 442 kinases [2]; 89% on panel of 442 kinases [3]; 100% on panel of 442 kinases [4]; 92% on panel of 442 kinases [5]; 52% at panel of 442 kinases [6]. Also, the remaining activity at 1 µM was 87% at panel of 442 kinases [7]; 86% at panel of 442 kinases [8]; 94% on panel of 442 kinases [10]; 100% on panel of 442 kinases [11]; 53% on panel of 442 kinases [12]; 91% at panel of 442 kinases [13]. In addition, the remaining activity at 1 µM on panel of 442 kinases [14] was 96%.
Regarding `FC(F)c1nc2ccccc2n1-c1nc(N2CCOCC2)nc(N2CCOCC2)n1` [ZSTK474, 2-(difluoromethyl)-1-[4,6-di(4-morpholinyl)-1,3,5-triazin-2-yl]-1H-benzimidazole], the remaining activity at 1 µM on panel of 442 kinases [1] stood at 85%; at panel of 442 kinases [2] it was 100%; on panel of 442 kinases [3] it was 100%; at panel of 442 kinases [4] it was 100%; on panel of 442 kinases [5] it was 100%; at panel of 442 kinases [6] it was 100%. Further, the remaining activity at 1 µM at panel of 442 kinases [7] was 100%; at panel of 442 kinases [8], 100%; on panel of 442 kinases [9] it was 74%; on panel of 442 kinases [10], 89%; on panel of 442 kinases [11], 100%; on panel of 442 kinases [12] it was 53%. The remaining activity at 1 µM at panel of 442 kinases [13] came out at 100%; at panel of 442 kinases [14] it was 97%.
With `COc1ncc(-c2ccc3nccc(-c4ccnnc4)c3c2)cc1NS(=O)(=O)c1ccc(F)cc1F` [Omipalisib], the remaining activity at 1 µM was 100% at panel of 442 kinases [1]; 86% on panel of 442 kinases [2]; 100% on panel of 442 kinases [3]; 100% on panel of 442 kinases [4]; 100% on panel of 442 kinases [5]; 96% at panel of 442 kinases [6]. Moreover, the remaining activity at 1 µM worked out at 87% on panel of 442 kinases [7]; 100% at panel of 442 kinases [8]; 75% at panel of 442 kinases [9]; 88% at panel of 442 kinases [10]; 100% on panel of 442 kinases [11]; 82% on panel of 442 kinases [12]. The remaining activity at 1 µM at panel of 442 kinases [13] and at panel of 442 kinases [14] was 100% throughout.
